Results published in patent publication US20200262787A1, “OPTICAL COMPONENT FORMING COMPOSITION AND CURED PRODUCT THEREOF” (Mitsubishi Gas Chemical Company, Inc., priority 2016, published 2020).

Experiment: Organic solvent solubility test of compound
Assay type: physicochemical
Details: compound in propylene glycol monomethyl ether acetate, 23° C., ultrasonic waves 30 minutes, visual
Experimental: The solubility of the compound in propylene glycol monomethyl ether acetate was measured as the solubility of the compound in an organic solvent.
A: 5.0% by mass Amount of dissolution
C: Amount of dissolution <3.0% by mass

Oc1ccc([Te](Cl)(Cl)c2ccc(O)cc2)cc1 [BHPT, bis(4-hydroxyphenyl)tellurium dichloride]
Solubility in organic solvent: A (5.0% by mass Amount of dissolution)

CC1(OC(=O)COc2ccc([Te](Cl)(Cl)c3ccc(OCC(=O)OC4(C)C5CC6CC(C5)CC4C6)cc3)cc2)C2CC3CC(C2)CC1C3 (centres unmarked) [BHPT-ADBAC, bis(4-(2-methyl-2-adamantyloxycarbonylmethoxy)phenyl)tellurium dichloride]
Solubility in organic solvent: A (5.0% by mass Amount of dissolution)

CC(C)(C)OC(=O)Oc1ccc([Te](Cl)(Cl)c2ccc(OC(=O)OC(C)(C)C)cc2)cc1 [BHPT-BOC, bis(tert-butoxycarboxyphenyl)tellurium dichloride]
Solubility in organic solvent: A (5.0% by mass Amount of dissolution)

CCOC(C)Oc1ccc([Te](Cl)(Cl)c2ccc(OC(C)OCC)cc2)cc1 (centres unmarked) [BHPT-EE, bis(ethoxyethylphenyl)tellurium dichloride]
Solubility in organic solvent: A (5.0% by mass Amount of dissolution)

Oc1ccc([Te](Cl)(Cl)c2ccc(O)cc2O)cc1 [CCHT, (2,4-dihydroxyphenyl) (4-hydroxyphenyl)tellurium dichloride]
Solubility in organic solvent: A (5.0% by mass Amount of dissolution)

CC1(OC(=O)COc2ccc([Te](Cl)(Cl)c3ccc(OCC(=O)OC4(C)C5CC6CC(C5)CC4C6)cc3OCC(=O)OC3(C)C4CC5CC(C4)CC3C5)cc2)C2CC3CC(C2)CC1C3 (centres unmarked) [CCHT-ADBAC]
Solubility in organic solvent: A (5.0% by mass Amount of dissolution)

Oc1ccc([Te](Cl)(Cl)c2ccc(O)c(-c3ccccc3)c2)cc1-c1ccccc1 [Ph-BHPT, bis(3-phenyl-4-hydroxyphenyl)tellurium dichloride]
Solubility in organic solvent: A (5.0% by mass Amount of dissolution)

CC1(OC(=O)COc2ccc([Te](Cl)(Cl)c3ccc(OCC(=O)OC4(C)C5CC6CC(C5)CC4C6)c(-c4ccccc4)c3)cc2-c2ccccc2)C2CC3CC(C2)CC1C3 (centres unmarked) [Ph-BHPT-ADBAC]
Solubility in organic solvent: A (5.0% by mass Amount of dissolution)

Oc1ccc([Te]c2ccc(O)c(-c3ccccc3)c2)cc1-c1ccccc1 [Ph-TDP, bis(3-phenyl-4-hydroxyphenyl)tellurium]
Solubility in organic solvent: A (5.0% by mass Amount of dissolution)

CC1(OC(=O)COc2ccc([Te]c3ccc(OCC(=O)OC4(C)C5CC6CC(C5)CC4C6)c(-c4ccccc4)c3)cc2-c2ccccc2)C2CC3CC(C2)CC1C3 (centres unmarked) [Ph-TDP-ADBAC]
Solubility in organic solvent: A (5.0% by mass Amount of dissolution)

CC(C)(C)OC(=O)COc1ccc([Te]c2ccc(OCC(=O)OC(C)(C)C)c(-c3ccccc3)c2)cc1-c1ccccc1 [Ph-TDP-BOC]
Solubility in organic solvent: A (5.0% by mass Amount of dissolution)

CCOC(C)Oc1ccc([Te](Cl)(Cl)c2ccc(OC(C)OCC)c(-c3ccccc3)c2)cc1-c1ccccc1 (centres unmarked) [Ph-TDP-EE]
Solubility in organic solvent: A (5.0% by mass Amount of dissolution)

Oc1ccc([Te]c2ccc(O)cc2)cc1 [TDP, 4,4′-telluriumdiphenol]
Solubility in organic solvent: A (5.0% by mass Amount of dissolution)

CC1(OC(=O)COc2ccc([Te]c3ccc(OCC(=O)OC4(C)C5CC6CC(C5)CC4C6)cc3)cc2)C2CC3CC(C2)CC1C3 (centres unmarked) [TDP-ADBAC]
Solubility in organic solvent: A (5.0% by mass Amount of dissolution)
